Test results as given in PubChem BioAssay AID720615 (Broad Institute, 2013).
Results filed as inconclusive are left out. Active and inactive are the calls of the source. No rule for the calls is given here.

Key:
[1] = caspase 3/7 activation in U251 cells, mechanism study for HRAS target identification, cell-based, luminescence, several timepoints, dry powder (AID 720615); details: U251 HRAS cells, caspase 3/7 luminescence, apoptosis; at 35 µM (top of the series)
[2] = test system: U251 HRAS cells, caspase 3/7 luminescence, apoptosis; experiment: as above

With `CCC(=O)N(c1ccc(OC)c(Cl)c1)C(C(=O)NCCc1ccccc1)c1cccs1` (stereo not given) the caspase 3/7 activation [1] was 4.74% (inactive).
`COc1ccc(N(C(=O)CCl)C(C(=O)NCCc2ccccc2)c2cccs2)cc1Cl` (stereo not given) showed an AC40 [2] of 5.7 µM, an AC40 ([2]; measured here: timepoint 1 caspase activation) of 14.7 µM and an AC40 ([2]; measured here: timepoint 2 caspase activation) of 1.45 µM. For the same compound, the AC40 ([2]; measured here: timepoint 3 caspase activation) was 0.948 µM.
